Experimental data: US8871753B2, “Macrocyclic compounds and their use as kinase inhibitors” (Incyte Corporation, priority 2008, dated 2014)

Columns and labels:
[1] = molecular target: T1, human JAK1 (a.a. 837-1142) (Homo sapiens, UniProt P23458); experiment: In vitro JAK kinase assay (HTRF, phosphorylation of a biotinylated peptide), JAK1; format: biochemical; conditions: Table D1; read-out: JAK1 IC50
T1 construct: human JAK1 (a.a. 837-1142); His tag (N); made in house; host or cells: insect cells (baculovirus)
Experimental: (§1) The catalytic activity of JAK1, JAK2 or JAK3 was assayed by measuring the phosphorylation of a biotinylated peptide. The phosphorylated peptide was detected by homogenous time resolved fluorescence (HTRF). […] The ATP concentration in the reactions was 90 μM for JAK1, 30 μM for JAK2 and 3 μM for JAK3. Reactions were carried out at room temperature for 1 hr and then stopped with 20 μL 45 mM EDTA, 300 nM SA-APC, 6 nM Eu-Py20 in assay buffer (Perkin Elmer, Boston, Mass.). Binding to the Europium labeled antibody took place for 40 minutes and HTRF signal was measured on a Fusion plate reader (Perkin Elmer, Boston, Mass.).
(§2) The catalytic activity of JAK1, JAK2 or JAK3 was assayed by measuring the phosphorylation of a biotinylated peptide. The phosphorylated peptide was detected by homogenous time resolved fluorescence (HTRF). […] Reactions were carried out at room temperature for 1 hr and then stopped with 20 μL 45 mM EDTA, 300 nM SA-APC, 6 nM Eu-Py20 in assay buffer (Perkin Elmer, Boston, Mass.). Binding to the Europium labeled antibody took place for 40 minutes and HTRF signal was measured on a Fusion plate reader (Perkin Elmer, Boston, Mass.).

[2] = molecular target: T2, human JAK2 (a.a. 828-1132) (Homo sapiens, UniProt O60674); experiment: In vitro JAK kinase assay (HTRF, phosphorylation of a biotinylated peptide), JAK2; format: biochemical; conditions: Table D1
T2 construct: JAK2 (a.a. 828-1132); His tag (N); made in house; host or cells: insect cells (baculovirus)
Experimental: as §1, §2

T1 sequence (P23458 849-1154): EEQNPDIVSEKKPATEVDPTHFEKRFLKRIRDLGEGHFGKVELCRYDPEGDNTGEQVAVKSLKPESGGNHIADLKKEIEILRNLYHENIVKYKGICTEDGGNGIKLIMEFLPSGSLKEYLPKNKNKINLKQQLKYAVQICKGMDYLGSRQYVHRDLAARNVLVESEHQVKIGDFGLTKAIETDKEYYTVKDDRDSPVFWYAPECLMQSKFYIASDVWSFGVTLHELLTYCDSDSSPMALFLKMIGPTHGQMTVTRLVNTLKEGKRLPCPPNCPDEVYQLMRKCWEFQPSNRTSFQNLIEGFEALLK
T2 sequence (O60674 828-1132): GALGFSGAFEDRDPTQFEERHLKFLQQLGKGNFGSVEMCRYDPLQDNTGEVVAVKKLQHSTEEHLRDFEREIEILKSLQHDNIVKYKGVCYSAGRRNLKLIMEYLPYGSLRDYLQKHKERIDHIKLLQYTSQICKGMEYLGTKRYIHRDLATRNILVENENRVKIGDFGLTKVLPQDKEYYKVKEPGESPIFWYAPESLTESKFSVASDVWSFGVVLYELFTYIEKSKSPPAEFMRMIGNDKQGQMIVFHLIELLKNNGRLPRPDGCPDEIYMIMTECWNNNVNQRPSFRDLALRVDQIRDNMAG

Row | IC50 [1] [nM] | IC50 [2] [nM] | Compound
1 | 23 | 577 | N#Cc1ccccc1NC(=O)N1CC[C@@H](CC(=O)Nc2ccc3cc2CCc2cncc(c2)Nc2ncc(Cl)c(n2)N3)C1 [Example D116, (3S)-3-(2-{[6-Chloro-2,4,8,18,22-pentaazatetracyclo[14.3.1.1(3,7).1(9,13)]docosa-1(20),3(22),4,6,9(21),10,12,16,18-nonaen-12-yl]amino}-2-oxoethyl)-N-(2-cyanophenyl)pyrrolidine-1-carboxamide bis(trifluoroacetate)]
2 | 98 |  | Cn1cncc1C(=O)N1CC[C@@H](CC(=O)Nc2ccc3cc2CCc2cncc(c2)Nc2ncc(Cl)c(n2)N3)C1 [Example D126, N-[6-Chloro-2,4,8,18,22-pentaazatetracyclo[14.3.1.1(3,7).1(9,13)]docosa-1(20),3(22),4,6,9(21),10,12,16,18-nonaen-12-yl]-2-{(3S)-1-[(1-methyl-1H-imidazol-5-yl)carbonyl]pyrrolidin-3-yl}acetamide tris(trifluoroacetate)]
3 | 11 | 161 | O=C(C[C@@H]1CCN(C(=O)Nc2ccccc2)C1)Nc1ccc2cc1CCc1cncc(c1)Nc1ncc(Cl)c(n1)N2 [Example D113, (3S)-3-(2-{[6-Chloro-2,4,8,18,22-pentaazatetracyclo[14.3.1.1(3,7).1(9,13)]docosa-1(20),3(22),4,6,9(21),10,12,16,18-nonaen-12-yl]amino}-2-oxoethyl)-N-phenylpyrrolidine-1-carboxamide bis(trifluoroacetate)]
4 | 2.5 | 78 | O=C(C[C@H]1CCN(C(=O)Nc2ccc(F)cc2)C1)Nc1ccc2cc1CCc1cncc(c1)Nc1ncc(Cl)c(n1)N2 [Example D102, (3R)-3-(2-{[6-Chloro-2,4,8,18,22-pentaazatetracyclo[14.3.1.1(3,7).1(9,13)]docosa-1(20),3(22),4,6,9(21),10,12,16,18-nonaen-12-yl]amino}-2-oxoethyl)-N-(4-fluorophenyl)pyrrolidine-1-carboxamide bis(trifluoroacetate)]
5 | 20 | 191 | N#Cc1ccccc1NC(=O)N1CC[C@H](CC(=O)Nc2ccc3cc2CCc2cncc(c2)Nc2ncc(Cl)c(n2)N3)C1 [Example D100, (3R)-3-(2-{[6-Chloro-2,4,8,18,22-pentaazatetracyclo[14.3.1.1(3,7).1(9,13)]docosa-1(20),3(22),4,6,9(21),10,12,16,18-nonaen-12-yl]amino}-2-oxoethyl)-N-(2-cyanophenyl)pyrrolidine-1-carboxamide bis(trifluoroacetate)]
6 | 22 | 222 | O=C(C[C@H]1CCN(C(=O)c2nccs2)C1)Nc1ccc2cc1CCc1cncc(c1)Nc1ncc(Cl)c(n1)N2 [Example D110, N-[6-Chloro-2,4,8,18,22-pentaazatetracyclo[14.3.1.1(3,7).1(9,13)]docosa-1(20),3(22),4,6,9(21),10,12,16,18-nonaen-12-yl]-2-[(3R)-1-(1,3-thiazol-2-ylcarbonyl)pyrrolidin-3-yl]acetamide bis(trifluoroacetate)]
7 | 15 | 107 | N#Cc1cccc(NC(=O)N2CC[C@H](CC(=O)Nc3ccc4cc3CCc3cncc(c3)Nc3ncc(Cl)c(n3)N4)C2)c1 [Example D99, (3R)-3-(2-{[6-Chloro-2,4,8,18,22-pentaazatetracyclo[14.3.1.1(3,7).1(9,13)]docosa-1(20),3(22),4,6,9(21),10,12,16,18-nonaen-12-yl]amino}-2-oxoethyl)-N-(3-cyanophenyl)pyrrolidine-1-carboxamide bis(trifluoroacetate)]
8 | 16 | 189 | Cc1cc(C(=O)N2CC[C@H](CC(=O)Nc3ccc4cc3CCc3cncc(c3)Nc3ncc(Cl)c(n3)N4)C2)no1 [Example D109, N-[6-Chloro-2,4,8,18,22-pentaazatetracyclo[14.3.1.1(3,7).1(9,13)]docosa-1(20),3(22),4,6,9(21),10,12,16,18-nonaen-12-yl]-2-{(3R)-1-[(5-methylisoxazol-3-yl)carbonyl]pyrrolidin-3-yl}acetamide bis(trifluoroacetate)]
9 | 16 |  | Cc1cc(C(=O)N2CC[C@@H](CC(=O)Nc3ccc4cc3CCc3cncc(c3)Nc3ncc(Cl)c(n3)N4)C2)no1 [Example D124, N-[6-Chloro-2,4,8,18,22-pentaazatetracyclo[14.3.1.1(3,7).1(9,13)]docosa-1(20),3(22),4,6,9(21),10,12,16,18-nonaen-12-yl]-2-{(3S)-1-[(5-methylisoxazol-3-yl)carbonyl]pyrrolidin-3-yl}acetamide bis(trifluoroacetate)]
10 | 12 | > 1000 | O=C(C[C@H]1CCCN(c2nc3cccnc3o2)C1)Nc1ccc2cc1CCc1cncc(c1)Nc1ncc(Cl)c(n1)N2 [Example D214, N-[6-Chloro-2,4,8,18,22-pentaazatetracyclo[14.3.1.1(3,7).1(9,13)]docosa-1(20),3(22),4,6,9(21),10,12,16,18-nonaen-12-yl]-2-[(3R)-1-[1,3]oxazolo[5,4-b]pyridin-2-ylpiperidin-3-yl]acetamide tris(trifluoroacetate)]
11 | 10 | 198 | O=C(C[C@@H]1CCN(C(=O)Nc2cccc(F)c2)C1)Nc1ccc2cc1CCc1cncc(c1)Nc1ncc(Cl)c(n1)N2 [Example D119, (3S)-3-(2-{[6-Chloro-2,4,8,18,22-pentaazatetracyclo[14.3.1.1(3,7).1(9,13)]docosa-1(20),3(22),4,6,9(21),10,12,16,18-nonaen-12-yl]amino}-2-oxoethyl)-N-(3-fluorophenyl)pyrrolidine-1-carboxamide bis(trifluoroacetate)]
12 | 14 | 172 | O=C(C[C@H]1CCN(C(=O)Nc2cccnc2)C1)Nc1ccc2cc1CCc1cncc(c1)Nc1ncc(Cl)c(n1)N2 [Example D101, (3R)-3-(2-{[6-Chloro-2,4,8,18,22-pentaazatetracyclo[14.3.1.1(3,7).1(9,13)]docosa-1(20),3(22),4,6,9(21),10,12,16,18-nonaen-12-yl]amino}-2-oxoethyl)-N-pyridin-3-ylpyrrolidine-1-carboxamide tris(trifluoroacetate)]
13 | 8.6 | 125 | O=C(C[C@@H]1CCN(C(=O)c2nc[nH]n2)C1)Nc1ccc2cc1CCc1cncc(c1)Nc1ncc(Cl)c(n1)N2 [Example D131, N-[6-Chloro-2,4,8,18,22-pentaazatetracyclo[14.3.1.1(3,7).1(9,13)]docosa-1(20),3(22),4,6,9(21),10,12,16,18-nonaen-12-yl]-2-[(3S)-1-(1H-1,2,4-triazol-3-ylcarbonyl)pyrrolidin-3-yl]acetamide bis(trifluoroacetate)]
14 | 25 | 216 | O=C(C[C@H]1CCN(C(=O)c2ccno2)C1)Nc1ccc2cc1CCc1cncc(c1)Nc1ncc(Cl)c(n1)N2 [Example D105, N-[6-Chloro-2,4,8,18,22-pentaazatetracyclo[14.3.1.1(3,7).1(9,13)]docosa-1(20),3(22),4,6,9(21),10,12,16,18-nonaen-12-yl]-2-[(3R)-1-(isoxazol-5-ylcarbonyl)pyrrolidin-3-yl]acetamide bis(trifluoroacetate)]
15 | 50 |  | Cc1oncc1C(=O)N1CC[C@@H](CC(=O)Nc2ccc3cc2CCc2cncc(c2)Nc2ncc(Cl)c(n2)N3)C1 [Example D123, N-[6-Chloro-2,4,8,18,22-pentaazatetracyclo[14.3.1.1(3,7).1(9,13)]docosa-1(20),3(22),4,6,9(21),10,12,16,18-nonaen-12-yl]-2-{(3S)-1-[(5-methylisoxazol-4-yl)carbonyl]pyrrolidin-3-yl}acetamide bis(trifluoroacetate)]
16 | 34 |  | O=C(C[C@@H]1CCN(C(=O)c2nccs2)C1)Nc1ccc2cc1CCc1cncc(c1)Nc1ncc(Cl)c(n1)N2 [Example D125, N-[6-Chloro-2,4,8,18,22-pentaazatetracyclo[14.3.1.1(3,7).1(9,13)]docosa-1(20),3(22),4,6,9(21),10,12,16,18-nonaen-12-yl]-2-[(3S)-1-(1,3-thiazol-2-ylcarbonyl)pyrrolidin-3-yl]acetamide bis(trifluoroacetate)]
17 | 23 |  | O=C(C[C@H]1CCN(C(=O)c2cc[nH]n2)C1)Nc1ccc2cc1CCc1cncc(c1)Nc1ncc(Cl)c(n1)N2 [Example D130, N-[6-Chloro-2,4,8,18,22-pentaazatetracyclo[14.3.1.1(3,7).1(9,13)]docosa-1(20),3(22),4,6,9(21),10,12,16,18-nonaen-12-yl]-2-[(3R)-1-(1H-pyrazol-3-ylcarbonyl)pyrrolidin-3-yl]acetamide bis(trifluoroacetate)]
18 | 11 |  | O=C(C[C@@H]1CCCN(c2nc3cccnc3o2)C1)Nc1ccc2cc1CCc1cncc(c1)Nc1ncc(Cl)c(n1)N2 [Example D213, N-[6-Chloro-2,4,8,18,22-pentaazatetracyclo[14.3.1.1(3,7).1(9,13)]docosa-1(20),3(22),4,6,9(21),10,12,16,18-nonaen-12-yl]-2-[(3S)-1-[1,3]oxazolo[5,4-b]pyridin-2-ylpiperidin-3-yl]acetamide tris(trifluoroacetate)]
